Test results: article PMC12040169 (PLOS Biology, 2025)

experiment: in vitro; conditions: human, hela cells, % viability

SMILES | viability at 28.5 h, 10 µM
Cc1ccc(S(=O)(=O)n2ccc3ccc(N4CCN(C)CC4)nc32)cc1 [CBK063327] | 84%
CC1CN(C(=O)NC2CCCCC2)C(c2ccccc2)ON1C (stereo not shown) [CBK026650] | 109%
O=C(NCCN1CCOCC1)NCC12CC3CC(C1)CC(c1ccccc1)(C3)C2 [CBK268388] | 89.1%
O=C(CC1CCN(Cc2cccc(C(F)(F)F)c2)CC1)NCc1ccc2[nH]c(=O)[nH]c2c1 [CBK285954] | 97.8%
O=C(O)c1ccc2c(c1)C(=O)N(c1cccnc1)C2=O [CBK287173] | 84.3%
CC(=O)C(C)n1c(CN2CCCC(C)C2)nc2c1c(=O)n(C)c(=O)n2C (stereo not shown) [CBK306061] | 88.2%
CCOc1cc(NC2CCN(C(=O)C3CCCC3)C2)ncn1 (stereo not shown) [CBK304137] | 106%
O=C(c1ccccc1F)[C@H]1CCCN(C(=O)c2cc(C3CC3)n[nH]2)C1 [CBK284330] | 80%
O=C(O)C=Cc1cn(-c2ccccc2)nc1-c1ccc(-c2ccc([N+](=O)[O-])cc2)o1 [CBK296088] | 105%
O=C(C1CCN(Cc2ccc(F)cc2)CC1)N1CCN(C/C=C/c2ccccc2)CC1 [CBK264325G] | 96.5%
O=C(O)C1CCCN1C(=O)Nc1ccccc1Cl (stereo not shown) [CBK161381] | 95.8%
O=C(O)C1CCCN1S(=O)(=O)c1ccc(Cl)cc1 (stereo not shown) [CBK261249] | 88.1%
COc1ccc(Sc2nc3cc(Cl)c(Cl)cc3nc2NC(C)C)cc1OC [CBK093792] | 103%
Cn1c(SCC(=O)NCCCN2CCOCC2)nc2ccccc2c1=O [CBK287607] | 109%
COc1ccc2c(c1)CCN(C(=O)C1CCc3nn(C)c(=O)n3C1)C2 (stereo not shown) [CBK307613] | 93.3%
OCC1CCCN1c1nccnc1-c1cccs1 (stereo not shown) [CBK089060] | 106%
CN(C)CCN(C)c1ccc(-c2cc3ccccc3o2)cn1 [CBK036820] | 107%

SMILES | viability at 28.5 h, 10 µM
CC(C)(C)c1cc(CN(Cc2cc(C(C)(C)C)c(O)c(C(C)(C)C)c2)/N=C\c2ccccc2O)cc(C(C)(C)C)c1O [CBK261990] | 101%
OCCc1ccc(Nc2cc(-c3ccco3)ncn2)cc1 [CBK090771] | 100%
O=C(Nc1nsc(-c2ccccc2)n1)c1ccc(F)cc1 [CBK113232] | 87.8%
CN(CCO)c1ccc(C(=O)N2CCC(N3CCOCC3)CC2)cn1 [CBK306899] | 97%
COC(=O)[C@@H]1Cc2ncn(C(C)C)c2CN1C(=O)CC(C)(C)C [CBK288988] | 88.9%
O=C(CN1C(=O)C2C3C=CC(C3)C2C1=O)OCC(=O)c1ccccc1 (stereo not shown) [CBK265112] | 100%
CN(C)S(=O)(=O)N(CC(=O)NCc1ccccc1Cl)c1ccccc1 [CBK269081] | 103%
O=C(c1ccco1)N1CCN(S(=O)(=O)c2ccc3c(c2)C(=NO)c2cc(S(=O)(=O)N4CCN(C(=O)c5ccco5)CC4)ccc2-3)CC1 [CBK262103] | 104%
O=C(O)CCCNC(=O)c1cncc(O)c1 [CBK262060] | 81.8%
CCN1CCN(c2ccc(NC(=O)c3ccc(-c4cc5ccccc5oc4=O)cc3)cc2Cl)CC1 [CBK266700] | 84.6%
Cc1nnc(NC(=O)c2ccc3c(c2)OCO3)s1 [CBK287358] | 104%
CC(C)(CC(=O)O)CC(=O)Nc1ccc(-c2nc3ccccc3s2)cc1 [CBK299796] | 104%
CCOC(=O)c1c(NC(=O)CSc2nnnn2C)sc(C)c1C [CBK268798] | 103%
CS(=O)(=O)Nc1ncc(-c2ccco2)cc1C(=O)NCCc1c[nH]c2ccccc12 [CBK076569] | 90.5%
Nc1nc2c(ncn2[C@H]2C[C@@H](O)[C@@H](CO)O2)c(=O)[nH]1 [CBK201294] | 98.1%
COc1cc2c(cc1-c1cn(CCc3n[nH]c(=O)[nH]3)nn1)CCC2 [CBK307112] | 98.3%

same assay, conditions: human, hela cells, % viability, bulk resorufin, single well

SMILES | viability at 28.5 h, 10 µM
CCc1ccc(N2C(=O)/C(=C/c3ccc(OCC(=O)O)c(Br)c3)C(=O)NC2=S)cc1 [CBK263325] | 96.4%
